Broadly, the IC50 is the concentration needed to halve the response being measured. Higher therefore signals weaker potency.

Molecules are shown by their SMILES. The source made the active and inactive calls. The rule behind the calls is not given here.

For data set [1], the system named is HepG2. In words: Cytotoxicity against human HepG2 cells after 3 days by MTT assay. The class given is functional, cell-based. The conditions noted are these: HepG2, 72 h. In general terms: Formazan colour is commonly taken as a measure of viable cells.
The test system of data set [2] is A549. Kind of data set: Induction of apoptosis in human A549 cells assessed as cell budding at 15 uM after 12 to 24 hrs by AO/EB staining-based fluorescence microscopic analysis. The class given is functional.
The test system of data set [3] is A549. In words: Induction of apoptosis in human A549 cells assessed as pycnosis at 15 uM after 12 to 24 hrs by AO/EB staining-based fluorescence microscopic analysis. Type of data set: functional, cell-based.
Data set [4] relates to NCI-H460. Kind of data set: Cytotoxicity against human NCI-H460 cells after 3 days by MTT assay. Type of data set: functional, cell-based. The conditions noted are these: NCI-H460, 72 h.
The test system of data set [5] is A549. Kind of data set: Induction of apoptosis in human A549 cells assessed as membrane blebbing at 15 uM after 12 to 24 hrs by AO/EB staining-based fluorescence microscopic analysis. The class given is functional, cell-based.
Data set [6] concerns A549. Kind of data set: Induction of apoptosis in human A549 cells assessed as early apoptotic cells at 20 uM after 12 hrs by Annexin V-propidium iodide staining-based FACS flow cytometric analysis (reference value: 0.2%). The class given is functional. In general terms: In flow cytometry, cells or beads pass a laser one at a time.
For data set [7], the system named is A549. Kind of data set: Induction of apoptosis in human A549 cells assessed as early apoptotic cells at 25 uM after 12 hrs by Annexin V-propidium iodide staining-based FACS flow cytometric analysis (reference value: 0.2%). Type of data set: functional.
Data set [8] deals with SK-OV-3. In words: Cytotoxicity against human SKOV3 cells after 3 days by MTT assay. The class given is functional, cell-based. As to conditions: SK-OV-3, 72 h.
The subject of data set [9] is A549. In words: Induction of apoptosis in human A549 cells assessed as necrotic/late apoptotic cells at 20 uM after 12 hrs by Annexin V-propidium iodide staining-based FACS flow cytometric analysis (reference value: 0.4%). Type of data set: functional.
Data set [10] concerns A549. Kind of data set: Induction of apoptosis in human A549 cells assessed as DNA fragmentation at 15 uM after 12 to 24 hrs by TUNEL assay. The class given is functional, cell-based.
In data set [11] the test system is A549. Kind of data set: Cytotoxicity against human A549 cells assessed as necrotic cells at 15 uM after 12 to 24 hrs by AO/EB staining-based fluorescence microscopic analysis. Type of data set: cell-based. The conditions noted are these: a549, 15 µM.
Data set [12] has as its system A549. In words: Cytotoxicity against human A549 cells after 3 days by MTT assay. The class given is functional, cell-based. As to conditions: A549, 72 h.
For data set [13], the system named is A549. Kind of data set: Induction of apoptosis in human A549 cells assessed as DNA ladder formation at 10 to 30 uM by agarose gel electrophoresis. Type of data set: functional, cell-based.
For data set [14], the system named is A549. In words: Induction of apoptosis in human A549 cells assessed as decrease in mitochondrial membrane potential at 15 uM after 12 to 24 hrs by JC-1 staining-based fluorescence microscopic analysis. The class given is functional, cell-based.
In data set [15] the test system is A549. Kind of data set: Induction of apoptosis in human A549 cells at 15 uM after 12 to 24 hrs by Hoechst 33258 staining-based fluorescence microscopic analysis. Type of data set: functional, cell-based.
In data set [16] the test system is A549. In words: Induction of apoptosis in human A549 cells assessed as necrotic/late apoptotic cells at 25 uM after 12 hrs by Annexin V-propidium iodide staining-based FACS flow cytometric analysis (reference value: 0.4%). The class given is functional.
The subject of data set [17] is A549. Kind of data set: Induction of apoptosis in human A549 cells after 12 hrs by Annexin V-propidium iodide staining-based FACS flow cytometric analysis. The class given is functional, cell-based.

Consider `CCOP(=O)(OCC)C(NC(=S)NC(=O)[C@]1(C)CCC[C@]2(C)c3ccc(C(C)C)cc3/C(=N\O)C[C@@H]12)c1ccc(F)cc1` (stereo not given in full), for which the IC50 in [1] was 13.1 µM; in data set [4] it was 17.7 µM; in data set [8], 11.4 µM; in data set [12], 7 µM. The outcome in data set [2], in [3], in data set [5], in data set [10], in data set [13] and in [14] was Active. In addition, in data set [15], the outcome was Active. In addition, the Activity in [6] is 14.4%; in [7], 34%; in data set [9], 5.3%; in data set [11], “Non-toxic”; in data set [16], 17.7%; in [17], “Dose-dependent effect”.

As for `CCOP(=O)(OCC)C(NC(=S)NC(=O)[C@]1(C)CCC[C@]2(C)c3ccc(C(C)C)cc3/C(=N\O)C[C@@H]12)c1cccc2ccccc12` (stereo not given in full), the IC50 in data set [1] is 27.9 µM; in [4], 37.1 µM; in [8], 40.1 µM; in [12], 28 µM.

`CCOP(=O)(OCC)C(NC(=S)NC(=O)[C@]1(C)CCC[C@]2(C)c3ccc(C(C)C)cc3/C(=N\O)C[C@@H]12)c1cccc(F)c1` (stereo not given in full): the IC50 in [1] amounted to 17.5 µM; in data set [4], 13.3 µM; in data set [8] it was 25.2 µM; in [12] it was 28.9 µM.

In the case of `CCOP(=O)(OCC)C(NC(=S)NC(=O)[C@]1(C)CCC[C@]2(C)c3ccc(C(C)C)cc3C(=O)C[C@@H]12)c1ccccc1OC` (stereo not given in full), the IC50 was over 50 µM in [1], 29.5 µM in [4], 23.6 µM in [8] and 19.9 µM in [12].

Turning to `CCOP(=O)(OCC)C(NC(=S)NC(=O)[C@]1(C)CCC[C@]2(C)c3ccc(C(C)C)cc3C(=O)C[C@@H]12)c1ccc2ccccc2c1` (stereo not given in full), the IC50 in data set [1] stood at 25.2 µM; in data set [4] it was 19.8 µM; in [8], 24.6 µM; in [12] it was 23.2 µM.

Regarding `CCOP(=O)(OCC)C(NC(=S)NC(=O)[C@]1(C)CCC[C@]2(C)c3ccc(C(C)C)cc3C(=O)C[C@@H]12)c1cccc(Br)c1` (stereo not given in full), the IC50 was over 50 µM in data set [1], 41.5 µM in data set [4], 49.1 µM in [8] and 42.5 µM in data set [12].

Turning to `CCOP(=O)(OCC)C(NC(=S)NC(=O)[C@]1(C)CCC[C@]2(C)c3ccc(C(C)C)cc3/C(=N\O)C[C@@H]12)c1ccc(C)cc1` (stereo not given in full), the half-inhibitory concentration (IC50) came to 10.9 µM in data set [1], 22.4 µM in [4], 8.95 µM in data set [8] and 17.9 µM in data set [12].

As to `CCOP(=O)(OCC)C(NC(=S)NC(=O)[C@]1(C)CCC[C@]2(C)c3ccc(C(C)C)cc3C(=O)C[C@@H]12)c1ccccc1F` (stereo not given in full), the IC50 in data set [1] was 49.3 µM; in data set [4] it was 36.4 µM; in data set [8], 45.1 µM; in data set [12], over 50 µM.

These data come from ChEMBL document CHEMBL2434931, “Synthesis and antitumor activities of novel thiourea α-aminophosphonates from dehydroabietic acid” (Eur J Med Chem, 2013).
